This is an account of results in patent US20170121683A1, “ARYL HYDROCARBON RECEPTOR DISRUPTION AND ENHANCEMENT” (priority 2015, published 2017).

Assay [1] relates to H9 hESCs. The assay is described as follows: Hemato-endothelial differentiation of H9 hESCs as spin-EBs, flow cytometry (Example 1). It counts as cell-based, human. The method, then:
H9 human embryonic stem cells (H9 hESCs; University of Wisconsin, Madison, Wis.) were adapted to passage as single cells using TrypLE (Invitrogen, Carlsbad, Calif.) as previously described (Ng et al. Nat. Protoc. 3, 768-76 (2008)). H9 hESCs were maintained on irradiated mouse embryonic fibroblasts in ES cell growth medium including Dulbecco's modified Eagle's medium (DMEM)/Ham's F-12 medium (F12) (Invitrogen) supplemented with 15% Knockout Serum Replacer (Invitrogen), 1 mM L-glutamine (Invitrogen), 0.1 mM β-mercaptoethanol (Sigma Aldrich, St. Louis, Mo.), 1% minimum essential medium nonessential amino acids (Invitrogen), 4 ng/mL basic fibroblast growth factor (R&D Systems Inc., Minneapolis, Minn.), and 1% penicillin-streptomycin (Invitrogen) incubated at 37° C. in a humidified atmosphere containing 5% CO2. Single-cell adapted hESCs were subjected to hemato-endothelial differentiation as spin embryoid bodies (“spin-EBs”), also previously described (Ng et al. Nat. Protoc. 3, 768-76 (2008); Knorr et al. Stem Cells Dev. 22, 1861-9 (2013); Ferrell et al., Stem Cells 33(4), 1130-41 (2015)). In brief, TrypLE-adapted hESCs were harvested are resuspended in bovine serum albumin polyvinyl alcohol essential lipids (BPEL) media (Ferrell et al. Stem Cells 33(4):1130-41 (2015)) supplemented with 20 ng/mL bone morphogenic protein-4 (R&D Systems), 20 ng/mL vascular endothelial growth factor (R&D Systems), and 40 ng/mL stem cell factor (R&D Systems) (hemato-endothelial induction media or Stage I mesodermal induction media). Cells were plated in a low-attachment 96-well plate (Thermo Scientific, Waltham, Mass.) at 3,000 cells per well and centrifuged at 1500 rpm for 5 minutes to create three-dimensionalized embryoid body aggregates. Following 6 days of incubation, EBs were transferred with a multichannel micropipette to 0.1% gelatinized 24-well plates (8 EBs/well) with BEL media (BPEL media minus polyvinyl alcohol) supplemented with 40 ng/mL vascular endothelial growth factor, 40 ng/mL stem cell factor, 30 ng/mL Interleukin-3 (Peprotech, Rocky Hill, N.J.), 30 ng/mL Interleukin-6 (Peprotech), and 30 ng/mL thrombopoietin (Peprotech) ([…] or Stage II media) to induce hemato-endothelial-specific differentiation. Depending on the treatment group, Stage II media was also supplemented with DMSO, 1 μM StemReginin-1 (SR-1) (Cellagen Technology, San Diego, Calif.) in DMSO or 10 nM 2,3,7,8-tetrachlorodibenzo-p-dioxin (TCDD) (Sigma Aldrich) in DMSO. EBs were cultured until the indicated time points and one-half media changes with fresh Stage II media and drugs were performed every three days. For EB harvesting, the media containing the non-adherent differentiated hematopoietic cells was set aside while the adherent cells were treated with 0.05% trypsin (Invitrogen) containing 2% chicken serum (Sigma Aldrich) for 8-10 minutes in a 37° C. water bath. Both non-adherent and adherent fractions were combined for subsequent analyses.
Harvested cells were incubated with PE-Cy7 CD34 (BD Biosciences, San Jose, Calif.) in conjunction with APC CD31, APC CD41a, APC CD43, or APC CD45 for 30 minutes at 4° C. in FACS buffer (DPBS containing 2% fetal bovine serum and 0.1% sodium azide). Dead cells were excluded using Sytox Blue dye (Invitrogen) prior to analysis. Cells were analyzed using an LSRII flow cytometer (BD Biosciences) and data were analyzed using FlowJo software (TreeStart, Ashland, Oreg.).
In general terms: A flow cytometer gives signals particle by particle.

Assay [2] deals with H9 hESCs. The assay is described as follows: NK cell differentiation from hESCs, flow cytometry (Example 1). The note with it: 1 μM SR-1 or 10 nM TCDD in NK cell differentiation conditions, n=2. It counts as cell-based, human. As to the method: H9 hESCs were differentiated as spin EB exposed to Stage I mesodermal induction media for 11 days and transferred to NK-cell differentiation media with either DMSO, 1 μM SR-1, or 10 nM TCDD treatment for an additional 14 and 21 days. At the indicated time points, non-adherent cells were harvested and analyzed for NK-cell immunophenotype (CD56^+CD45^+) by flow cytometry. Representative flow cytometry plots are shown from two biologically independent experiments.
H9 hESCs were differentiated into NK cells as previously described (Ni et al. Embryonic Stem Cell Immunobiol. Methods Protoc. Methods Mol. Biol. 1029, 33-41 (2013)). In brief, H9 hESCs were aggregated as spin-EBs and differentiated in Stage I mesodermal induction media for 11 days, with one-half media change with fresh cytokines on Day 6. […]
Harvested cells were incubated with PE-Cy7 CD34 (BD Biosciences, San Jose, Calif.) in conjunction with APC CD31, APC CD41a, APC CD43, or APC CD45 for 30 minutes at 4° C. in FACS buffer (DPBS containing 2% fetal bovine serum and 0.1% sodium azide). […] Cells were analyzed using an LSRII flow cytometer (BD Biosciences) and data were analyzed using FlowJo software (TreeStart, Ashland, Oreg.).

Take `Clc1cc2c(cc1Cl)Oc1cc(Cl)c(Cl)cc1O2` [TCDD, 2,3,7,8-tetrachlorodibenzo-p-dioxin]: in assay [1] (Day 15, 10 nM TCDD, n=3), the “CD34+CD45+ progenitor cells” value is 3.99%±0.80, the “CD34−CD43+ differentiated hematopoietic cells” value is recorded as 84.5%±2.78 and the “CD34−CD45+ differentiated hematopoietic cells” value is listed as 81.75%±1.75. In assay [2], the “CD56+CD45+ NK cells” value amounted to 6.7%.

As for `CC(C)n1cnc2c(NCCc3ccc(O)cc3)nc(-c3csc4ccccc34)nc21` [SR-1, StemReginin-1], the “CD34+CD31+ hemato-endothelial cells” value in assay [1] (Day 9, 1 μM SR-1, n=3) is 17.63%±1.25. In assay [1] (Day 12, 1 μM SR-1), the “expansion of CD34+CD45+ hematopoietic progenitor cells relative to DMSO-treated controls” value was “approximately two-fold expansion”. The “CD34+CD45+ hematopoietic progenitor cells” value in assay [1] (Day 12, 1 μM SR-1, n=3) is reported as 16.35%±4.05. The “CD56+CD45+ NK cells” value in assay [2] is recorded as 26.4%.
